Source: patent US10519152B2, “Compounds and their use in treating cancer” (AstraZeneca AB, priority 2017, dated 2019)
Counter-ions that a name gives are not always drawn.

Molecular target: T1, Estrogen Receptor (ERα) in MCF-7 human ductal carcinoma breast cell line (Homo sapiens, UniProt P03372)
T1 construct: endogenous in cells; host or cells: MCF-7
T1 sequence (P03372 1-595): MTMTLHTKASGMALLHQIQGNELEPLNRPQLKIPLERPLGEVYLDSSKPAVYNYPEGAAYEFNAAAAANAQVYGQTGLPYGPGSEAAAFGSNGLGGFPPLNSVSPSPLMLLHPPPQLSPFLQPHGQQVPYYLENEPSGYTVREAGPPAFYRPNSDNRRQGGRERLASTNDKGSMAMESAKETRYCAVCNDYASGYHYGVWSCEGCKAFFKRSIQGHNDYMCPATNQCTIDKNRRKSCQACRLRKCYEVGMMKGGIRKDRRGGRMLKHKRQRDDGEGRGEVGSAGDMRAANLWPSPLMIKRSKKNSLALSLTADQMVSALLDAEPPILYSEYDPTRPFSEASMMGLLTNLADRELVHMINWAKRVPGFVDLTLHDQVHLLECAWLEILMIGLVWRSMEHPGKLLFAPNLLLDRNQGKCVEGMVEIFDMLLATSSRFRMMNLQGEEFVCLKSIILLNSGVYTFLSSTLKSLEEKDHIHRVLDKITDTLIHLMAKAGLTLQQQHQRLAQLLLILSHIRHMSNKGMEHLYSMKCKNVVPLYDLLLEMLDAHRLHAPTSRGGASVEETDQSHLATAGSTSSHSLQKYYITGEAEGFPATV
Experiment: MCF-7 ER degradation assay (cell based immuno-fluorescence)
Conditions: MCF-7 cells; for ER degradation ≥ 90% at 0.3 μM: ER degradation by fulvestrant at 0.3 μM is defined as 100%; for DC50: 18-22 hours incubation, 50% reduction of ERα expression, single experiment or average of two or more, read-out: MCF-7 ER degradation IC50
Method in brief: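 MCF-7 human ductal carcinoma breast cells were seeded at 3.75×10^4 cells per mL (40 μL per well) in 384 well plates with phenol red free DMEM containing 2 mM L-Glutamine and 5% (v/v) Charcoal/Dextran treated foetal calf serum. After overnight culture, compounds were acoustically dispensed, incubated 18-22 hours, then cells were formaldehyde-fixed and immunostained for ERα.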

| Compound | ER degradation ≥ 90% at 0.3 μM | DC50 [nM] |
| --- | --- | --- |
| Cc1ncsc1-c1ccc(CNC(=O)[C@@H]2C[C@@H](O)CN2C(=O)[C@@H](NC(=O)COCCCOCCOc2cc(F)c([C@@H]3c4[nH]c5ccccc5c4C[C@@H](C)N3CC(F)(F)F)c(F)c2)C(C)(C)C)cc1 [Example 94, (2S,4R)-1-((S)-2-(2-(3-(2-(3,5-Difluoro-4-((1R,3R)-3-methyl-2-(2,2,2-trifluoroethyl)-2,3,4,9-tetrahydro-1H-pyrido[3,4-b]indol-1-yl)phenoxy)ethoxy)propoxy)acetamido)-3,3-dimethylbutanoyl)-4-hydroxy-N-(4-(4-methylthiazol-5-yl)benzyl)pyrrolidine-2-carboxamide] | • | 0.6 |
| Cc1ncsc1-c1ccc(CNC(=O)[C@@H]2C[C@@H](O)CN2C(=O)[C@@H](NC(=O)COCCOCCCCCOc2cc(F)c([C@@H]3c4[nH]c5ccccc5c4C[C@@H](C)N3CC(C)(C)F)c(F)c2)C(C)(C)C)cc1 [Example 97, (2S,4R)-1-((S)-2-(2-(2-((5-(3,5-Difluoro-4-((1R,3R)-2-(2-fluoro-2-methylpropyl)-3-methyl-2,3,4,9-tetrahydro-1H-pyrido[3,4-b]indol-1-yl)phenoxy)pentyl)oxy)ethoxy)acetamido)-3,3-dimethylbutanoyl)-4-hydroxy-N-(4-(4-methylthiazol-5-yl)benzyl)pyrrolidine-2-carboxamide] | •• | 0.8 |
| Cc1ncsc1-c1ccc(CNC(=O)[C@@H]2C[C@@H](O)CN2C(=O)[C@@H](NC(=O)COCCOCCOCCOCC(=O)Nc2cc(F)c([C@@H]3c4[nH]c5ccccc5c4C[C@@H](C)N3CC(C)(C)F)c(F)c2)C(C)(C)C)cc1 [Example 68, N1-(3,5-difluoro-4-((1R,3R)-2-(2-fluoro-2-methylpropyl)-3-methyl-2,3,4,9-tetrahydro-1H-pyrido[3,4-b]indol-1-yl)phenyl)-N14-((S)-1-((2S,4R)-4-hydroxy-2-((4-(4-methylthiazol-5-yl)benzyl)carbamoyl)pyrrolidin-1-yl)-3,3-dimethyl-1-oxobutan-2-yl)-3,6,9,12-tetraoxatetradecanediamide] | •• | 6.2 |
| Cc1ncsc1-c1ccc(CNC(=O)[C@@H]2C[C@@H](O)CN2C(=O)[C@@H](NC(=O)COCCCCCCCOc2cc(F)c([C@@H]3c4[nH]c5ccccc5c4C[C@@H](C)N3CC(F)(F)CO)c(F)c2)C(C)(C)C)cc1 [Example 78, (2S,4R)-1-((S)-2-(2-((7-(4-((1R,3R)-2-(2,2-Difluoro-3-hydroxypropyl)-3-methyl-2,3,4,9-tetrahydro-1H-pyrido[3,4-b]indol-1-yl)-3,5-difluorophenoxy)heptyl)oxy)acetamido)-3,3-dimethylbutanoyl)-4-hydroxy-N-(4-(4-methylthiazol-5-yl)benzyl)pyrrolidine-2-carboxamide] | •• | 0.6 |
| Cc1ncsc1-c1ccc(CNC(=O)[C@@H]2C[C@@H](O)CN2C(=O)[C@@H](NC(=O)COCc2ccc(COc3cc(F)c([C@@H]4c5[nH]c6ccccc6c5C[C@@H](C)N4CC(C)(C)F)c(F)c3)nc2)C(C)(C)C)cc1 [Example 85, (2S,4R)-1-((S)-2-(2-((6-((3,5-difluoro-4-((1R,3R)-2-(2-fluoro-2-methylpropyl)-3-methyl-2,3,4,9-tetrahydro-1H-pyrido[3,4-b]indol-1-yl)phenoxy)methyl)pyridin-3-yl)methoxy)acetamido)-3,3-dimethylbutanoyl)-4-hydroxy-N-(4-(4-methylthiazol-5-yl)benzyl)pyrrolidine-2-carboxamide] | •• | 0.6 |
| Cc1ncsc1-c1ccc([C@H](C)NC(=O)[C@@H]2C[C@@H](O)CN2C(=O)[C@@H](NC(=O)COCCOCCOCCOc2cc(F)c([C@@H]3c4[nH]c5ccccc5c4C[C@@H](C)N3CC(C)(C)F)c(F)c2)C(C)(C)C)cc1 [Example 3, (2S,4R)-1-((S)-2-(tert-Butyl)-14-(3,5-difluoro-4-((1R,3R)-2-(2-fluoro-2-methylpropyl)-3-methyl-2,3,4,9-tetrahydro-1H-pyrido[3,4-b]indol-1-yl)phenoxy)-4-oxo-6,9,12-trioxa-3-azatetradecanoyl)-4-hydroxy-N—((S)-1-(4-(4-methylthiazol-5-yl)phenyl)ethyl)pyrrolidine-2-carboxamide] | •• | 0.3 |
| CC[C@H](C)[C@H](N)C(=O)O[C@@H]1C[C@@H](C(=O)NCc2ccc(-c3scnc3C)cc2)N(C(=O)[C@@H](NC(=O)COCCOCCOCCOc2cc(F)c([C@@H]3c4[nH]c5ccccc5c4C[C@@H](C)N3CC(C)(C)F)c(F)c2)C(C)(C)C)C1 [Example 99, (3R,5S)-1-((S)-2-(2-(2-(2-(2-(3,5-Difluoro-4-((1R,3R)-2-(2-fluoro-2-methylpropyl)-3-methyl-2,3,4,9-tetrahydro-1H-pyrido[3,4-b]indol-1-yl)phenoxy)ethoxy)ethoxy)ethoxy)acetamido)-3,3-dimethylbutanoyl)-5-((4-(4-methylthiazol-5-yl)benzyl)carbamoyl)pyrrolidin-3-yl L-isoleucinate Formate] | • | 1.6 |
| Cc1ncsc1-c1ccc(CNC(=O)[C@@H]2C[C@@H](OC(=O)[C@H](C)NC(=O)[C@@H](N)C(C)C)CN2C(=O)[C@@H](NC(=O)COCCOCCOCCOc2cc(F)c([C@@H]3c4[nH]c5ccccc5c4C[C@@H](C)N3CC(C)(C)F)c(F)c2)C(C)(C)C)cc1 [Example 100, (3R,5S)-1-((S)-2-(2-(2-(2-(2-(3,5-Difluoro-4-((1R,3R)-2-(2-fluoro-2-methylpropyl)-3-methyl-2,3,4,9-tetrahydro-1H-pyrido[3,4-b]indol-1-yl)phenoxy)ethoxy)ethoxy)ethoxy)acetamido)-3,3-dimethylbutanoyl)-5-((4-(4-methylthiazol-5-yl)benzyl)carbamoyl)pyrrolidin-3-yl L-valyl-L-alaninate Formate] | •• | 0.4 |
| Cc1ncsc1-c1ccc(CNC(=O)[C@@H]2C[C@@H](O)CN2C(=O)[C@@H](NC(=O)COCCCCCOc2cc(F)c([C@@H]3c4[nH]c5ccccc5c4C[C@@H](C)N3CC(F)(F)F)c(F)c2)C(C)(C)C)cc1 [Example 96] | • | 1.3 |
| Cc1ncsc1-c1ccc(CNC(=O)[C@@H]2C[C@@H](O)CN2C(=O)[C@@H](NC(=O)Cc2ccc(OCCOCCNC(=O)/C=C/c3cc(F)c([C@@H]4c5[nH]c6ccccc6c5C[C@@H](C)N4CC(C)(C)F)c(F)c3)cc2)C(C)(C)C)cc1 [Example 66, (2S,4R)-1-((S)-2-(2-(4-(2-(2-((E)-3-(3,5-difluoro-4-((1R,3R)-2-(2-fluoro-2-methylpropyl)-3-methyl-2,3,4,9-tetrahydro-1H-pyrido[3,4-b]indol-1-yl)phenyl)acrylamido)ethoxy)ethoxy)phenyl)acetamido)-3,3-dimethylbutanoyl)-4-hydroxy-N-(4-(4-methylthiazol-5-yl)benzyl)pyrrolidine-2-carboxamide, Trifluoroacetic Acid] | • | 2.2 |
| Cc1ncsc1-c1ccc(CNC(=O)[C@@H]2C[C@@H](O)CN2C(=O)[C@@H](NC(=O)COCc2cccc(CCCOc3cc(F)c([C@@H]4c5[nH]c6ccccc6c5C[C@@H](C)N4CC(C)(C)F)c(F)c3)c2)C(C)(C)C)cc1 [Example 74, (2S,4R)-1-((S)-2-(2-((3-(3-(3,5-Difluoro-4-((1R,3R)-2-(2-fluoro-2-methylpropyl)-3-methyl-2,3,4,9-tetrahydro-1H-pyrido[3,4-b]indol-1-yl)phenoxy)propyl)benzyl)oxy)acetamido)-3,3-dimethylbutanoyl)-4-hydroxy-N-(4-(4-methylthiazol-5-yl)benzyl)pyrrolidine-2-carboxamide] | •• | 14.3 |
